Assay results published in patent US12404262B2 (priority 2021, dated 2025).

Details: 1.0% DMSO, 24-hour incubation at ambient temperature, maximum theoretical 100 μM; for pH 2 solubility: 0.1N HCl, first value of the cell; for pH 7 solubility: 1×PBS buffer (pH 7.4), second value of the cell

Row | Structure (SMILES) | pH 2 solubility | pH 7 solubility
1 | CN(C(=O)N(c1nn(CC(F)(F)F)c2c(-c3ccc(C#CC(C)(C)S(C)(=O)=O)nc3[C@H](Cc3cc(F)cc(F)c3)NC(=O)Cn3nc(C(F)(F)F)c4c3C(F)(F)[C@@H]3C[C@H]43)ccc(Cl)c12)S(C)(=O)=O)[C@@H](CC(=O)O)C(=O)O [Compound 71, N-((4-chloro-7-(2-((S)-1-(2-((3bS,4aR)-5,5-difluoro-3-(trifluoromethyl)-3b,4,4a,5-tetrahydro-1H-cyclopropa[3,4]cyclopenta[1,2-c]pyrazol-1-yl)acetamido)-2-(3,5-difluorophenyl)ethyl)-6-(3-methyl-3-(methylsulfonyl)but-1-yn-1-yl)pyridin-3-yl)-1-(2,2,2-trifluoroethyl)-1H-indazol-3-yl)(methylsulfonyl)carbamoyl)-N-methyl-L-aspartic acid] | 1 μM | 15 μM
2 | CN(C(=O)N(c1nn(CC(F)(F)F)c2c(-c3ccc(C#CC(C)(C)S(C)(=O)=O)nc3[C@H](Cc3cc(F)cc(F)c3)NC(=O)Cn3nc(C(F)(F)F)c4c3C(F)(F)[C@@H]3C[C@H]43)ccc(Cl)c12)S(C)(=O)=O)C(C)(C)C(=O)OCOP(=O)(O)O [Compound 85, (phosphonooxy)methyl 2-(3-(4-chloro-7-(2-((S)-1-(2-((3bS,4aR)-5,5-difluoro-3-(trifluoromethyl)-3b,4,4a,5-tetrahydro-1H-cyclopropa[3,4]cyclopenta[1,2-c]pyrazol-1-yl)acetamido)-2-(3,5-difluorophenyl)ethyl)-6-(3-methyl-3-(methylsulfonyl)but-1-yn-1-yl)pyridin-3-yl)-1-(2,2,2-trifluoroethyl)-1H-indazol-3-yl)-1-methyl-3-(methylsulfonyl)ureido)-2-methylpropanoate] | 5 μM | 65 μM
3 | CC(C)(C#Cc1ccc(-c2ccc(Cl)c3c(N(C(=O)N[C@H](CC(=O)O)C(=O)O)S(C)(=O)=O)nn(CC(F)(F)F)c23)c([C@H](Cc2cc(F)cc(F)c2)NC(=O)Cn2nc(C(F)(F)F)c3c2C(F)(F)[C@@H]2C[C@H]32)n1)S(C)(=O)=O [Compound 70, ((4-chloro-7-(2-((S)-1-(2-((3bS,4aR)-5,5-difluoro-3-(trifluoromethyl)-3b,4,4a,5-tetrahydro-1H-cyclopropa[3,4]cyclopenta[1,2-c]pyrazol-1-yl)acetamido)-2-(3,5-difluorophenyl)ethyl)-6-(3-methyl-3-(methylsulfonyl)but-1-yn-1-yl)pyridin-3-yl)-1-(2,2,2-trifluoroethyl)-1H-indazol-3-yl)(methylsulfonyl)carbamoyl)-D-aspartic acid] | 1 μM | 58 μM
4 | CC(C)(C#Cc1ccc(-c2ccc(Cl)c3c(N(C(=O)NCCCCP(=O)(O)O)S(C)(=O)=O)nn(CC(F)(F)F)c23)c([C@H](Cc2cc(F)cc(F)c2)NC(=O)Cn2nc(C(F)(F)F)c3c2C(F)(F)[C@@H]2C[C@H]32)n1)S(C)(=O)=O [Compound 55, (4-(3-(4-chloro-7-(2-((S)-1-(2-((3bS,4aR)-5,5-difluoro-3-(trifluoromethyl)-3b,4,4a,5-tetrahydro-1H-cyclopropa[3,4]cyclopenta[1,2-c]pyrazol-1-yl)acetamido)-2-(3,5-difluorophenyl)ethyl)-6-(3-methyl-3-(methylsulfonyl)but-1-yn-1-yl)pyridin-3-yl)-1-(2,2,2-trifluoroethyl)-1H-indazol-3-yl)-3-(methylsulfonyl)ureido)butyl)phosphonic acid] | 1 μM | 13 μM
5 | CC(C)(C#Cc1ccc(-c2ccc(Cl)c3c(N(COC(=O)CCP(=O)(O)O)S(C)(=O)=O)nn(CC(F)(F)F)c23)c([C@H](Cc2cc(F)cc(F)c2)NC(=O)Cn2nc(C(F)(F)F)c3c2C(F)(F)[C@@H]2C[C@H]32)n1)S(C)(=O)=O [Compound 21, (3-((N-(4-chloro-7-(2-((S)-1-(2-((3bS,4aR)-5,5-difluoro-3-(trifluoromethyl)-3b,4,4a,5-tetrahydro-1H-cyclopropa[3,4]cyclopenta[1,2-c]pyrazol-1-yl)acetamido)-2-(3,5-difluorophenyl)ethyl)-6-(3-methyl-3-(methylsulfonyl)but-1-yn-1-yl)pyridin-3-yl)-1-(2,2,2-trifluoroethyl)-1H-indazol-3-yl)methylsulfonamido)methoxy)-3-oxopropyl)phosphonic acid] | 86 μM | 1 μM
6 | CC(C)(C#Cc1ccc(-c2ccc(Cl)c3c(N(C(=O)NCCCP(=O)(O)O)S(C)(=O)=O)nn(CC(F)(F)F)c23)c([C@H](Cc2cc(F)cc(F)c2)NC(=O)Cn2nc(C(F)(F)F)c3c2C(F)(F)[C@@H]2C[C@H]32)n1)S(C)(=O)=O [Compound 54-1, (3-(3-(4-chloro-7-(2-((S)-1-(2-((3bS,4aR)-5,5-difluoro-3-(trifluoromethyl)-3b,4,4a,5-tetrahydro-1H-cyclopropa[3,4]cyclopenta[1,2-c]pyrazol-1-yl)acetamido)-2-(3,5-difluorophenyl)ethyl)-6-(3-methyl-3-(methylsulfonyl)but-1-yn-1-yl)pyridin-3-yl)-1-(2,2,2-trifluoroethyl)-1H-indazol-3-yl)-3-(methylsulfonyl)ureido)propyl)phosphonic acid] | 1 μM | 14 μM
7 | CC(=O)N(c1nn(CC(F)(F)F)c2c(-c3ccc(C#CC(C)(C)S(C)(=O)=O)nc3[C@H](Cc3cc(F)cc(F)c3)NC(=O)Cn3nc(C(F)(F)F)c4c3C(F)(F)[C@@H]3C[C@H]43)ccc(Cl)c12)S(C)(=O)=O [Compound 1, N—((S)-1-(3-(4-chloro-3-(N-(methylsulfonyl)acetamido)-1-(2,2,2-trifluoroethyl)-1H-indazol-7-yl)-6-(3-methyl-3-(methylsulfonyl)but-1-yn-1-yl)pyridin-2-yl)-2-(3,5-difluorophenyl)ethyl)-2-((3bS,4aR)-5,5-difluoro-3-(trifluoromethyl)-3b,4,4a,5-tetrahydro-1H-cyclopropa[3,4]cyclopenta[1,2-c]pyrazol-1-yl)acetamide] | 1/1 μM | 1/1 μM

Results, then the compound that gave them:

Row | pH 2 solubility | pH 7 solubility | Structure (SMILES)
8 | 4 μM | 1 μM | CC(C)(C#Cc1ccc(-c2ccc(Cl)c3c(N(C(=O)OCCOCCOCCO)S(C)(=O)=O)nn(CC(F)(F)F)c23)c([C@H](Cc2cc(F)cc(F)c2)NC(=O)Cn2nc(C(F)(F)F)c3c2C(F)(F)[C@@H]2C[C@H]32)n1)S(C)(=O)=O [Compound 107, 2-(2-(2-hydroxyethoxy)ethoxy)ethyl (4-chloro-7-(2-((S)-1-(2-((3bS,4aR)-5,5-difluoro-3-(trifluoromethyl)-3b,4,4a,5-tetrahydro-1H-cyclopropa[3,4]cyclopenta[1,2-c]pyrazol-1-yl)acetamido)-2-(3,5-difluorophenyl)ethyl)-6-(3-methyl-3-(methylsulfonyl)but-1-yn-1-yl)pyridin-3-yl)-1-(2,2,2-trifluoroethyl)-1H-indazol-3-yl)(methylsulfonyl)carbamate]
9 | 1/1 μM | 1/1 μM | C[C@H](OC(=O)N(c1nn(CC(F)(F)F)c2c(-c3ccc(C#CC(C)(C)S(C)(=O)=O)nc3[C@H](Cc3cc(F)cc(F)c3)NC(=O)Cn3nc(C(F)(F)F)c4c3C(F)(F)[C@@H]3C[C@H]43)ccc(Cl)c12)S(C)(=O)=O)C(=O)O [Compound 115, (S)-2-(((4-chloro-7-(2-((S)-1-(2-((3bS,4aR)-5,5-difluoro-3-(trifluoromethyl)-3b,4,4a,5-tetrahydro-1H-cyclopropa[3,4]cyclopenta[1,2-c]pyrazol-1-yl)acetamido)-2-(3,5-difluorophenyl)ethyl)-6-(3-methyl-3-(methylsulfonyl)but-1-yn-1-yl)pyridin-3-yl)-1-(2,2,2-trifluoroethyl)-1H-indazol-3-yl)(methylsulfonyl)carbamoyl)oxy)propanoic acid]
10 | 1/1 μM | 1/1 μM | CC(C)(C#Cc1ccc(-c2ccc(Cl)c3c(N(C(=O)O[C@H](C(=O)O)[C@H](O)C(=O)O)S(C)(=O)=O)nn(CC(F)(F)F)c23)c([C@H](Cc2cc(F)cc(F)c2)NC(=O)Cn2nc(C(F)(F)F)c3c2C(F)(F)[C@@H]2C[C@H]32)n1)S(C)(=O)=O [Compound 118, (2S,3S)-2-(((4-chloro-7-(2-((S)-1-(2-((3bS,4aR)-5,5-difluoro-3-(trifluoromethyl)-3b,4,4a,5-tetrahydro-1H-cyclopropa[3,4]cyclopenta[1,2-c]pyrazol-1-yl)acetamido)-2-(3,5-difluorophenyl)ethyl)-6-(3-methyl-3-(methylsulfonyl)but-1-yn-1-yl)pyridin-3-yl)-1-(2,2,2-trifluoroethyl)-1H-indazol-3-yl)(methylsulfonyl)carbamoyl)oxy)-3-hydroxysuccinic acid]
11 | 72 μM | 16 μM | CC(C)(C#Cc1ccc(-c2ccc(Cl)c3c(N(C(=O)NCCN4CCNCC4)S(C)(=O)=O)nn(CC(F)(F)F)c23)c([C@H](Cc2cc(F)cc(F)c2)NC(=O)Cn2nc(C(F)(F)F)c3c2C(F)(F)[C@@H]2C[C@H]32)n1)S(C)(=O)=O [Compound 73, N—((S)-1-(3-(4-chloro-3-(N-((2-(piperazin-1-yl)ethyl)carbamoyl)methylsulfonamido)-1-(2,2,2-trifluoroethyl)-1H-indazol-7-yl)-6-(3-methyl-3-(methylsulfonyl)but-1-yn-1-yl)pyridin-2-yl)-2-(3,5-difluorophenyl)ethyl)-2-((3bS,4aR)-5,5-difluoro-3-(trifluoromethyl)-3b,4,4a,5-tetrahydro-1H-cyclopropa[3,4]cyclopenta[1,2-c]pyrazol-1-yl)acetamide]
